Experimental data: article PMC7422936 (European journal of medicinal chemistry, 2020)
Where “and” joins values, the source holds several entries; their conditions need not be identical. Equal entries are not always repeated. Where two headings read alike, the source gives them in different places.

Legend:
[1] = system: carrageenan-induced paw edema; test: Carrageenan-induced mouse paw edema model; assay type: in vivo
[2] = target: CXCR4 (Homo sapiens, UniProt P61073); test: In vitro binding assay
CXCR4, sequence (P61073 whole entry): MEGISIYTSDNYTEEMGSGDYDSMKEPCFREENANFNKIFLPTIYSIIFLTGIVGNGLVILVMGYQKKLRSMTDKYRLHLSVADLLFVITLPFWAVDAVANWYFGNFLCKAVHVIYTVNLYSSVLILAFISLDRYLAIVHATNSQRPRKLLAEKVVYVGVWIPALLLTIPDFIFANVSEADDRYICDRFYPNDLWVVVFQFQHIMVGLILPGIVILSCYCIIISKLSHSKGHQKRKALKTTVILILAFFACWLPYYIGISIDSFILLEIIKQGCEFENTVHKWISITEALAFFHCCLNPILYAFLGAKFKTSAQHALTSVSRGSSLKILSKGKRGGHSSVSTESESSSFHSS

Row | EC50 [2] | IC50 [2] | EC50 ([2]; read-out: Binding Affinity (EC), EC = concentration at which the compound blocks > 50% of rhodamine Red X-TN14003, MDA-MB-231 cells, tested at 1, 10, 100, 1000 nM) | Structure (SMILES) | Reduction of edema (paw) weight ([1]; 10 mg/kg i.p. once daily, 74 h after carrageenan, n = 5, versus untreated mice) | Histology / immunohistochemistry of paw tissue ([1]; 10 mg/kg i.p., H&E and anti-CXCR4 staining)
1 | 1 nM | 1.25 nM |  | N=C(N)NCCC[C@H](N)C(=O)NC1CCN(C(=O)CCn2ccc3ccncc32)CC1 [Z7R] | 50% and ~ 50% | observable decrease in the number of inflammatory cells
2 |  |  | 100 nM | NC(C(=O)NC1CCN(C(=O)CCn2ccc3ccncc32)CC1)c1ccccc1 (centres unmarked) [ZINC72372983] |  | 
